In ChEMBL document CHEMBL1201862, “PubChem BioAssay data set” (2004):
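Five concentrations, 48 hours, 96-well plates. At the GI50, growth is halved.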 Active and inactive are the calls of the source. Cut-off read from the data, not from the text of the source: active = GI50 up to about 1.1 µM and inactive = higher.

What was measured:
Experiment in all cases: growth of human tumour cells (NCI), 48 h
[1] = test system: BT-549
[2] = test system: DU-145
[3] = test system: HCT-116
[4] = test system: IGROV-1
[5] = test system: LOX IMVI
[6] = test system: MCF7
[7] = test system: MDA-N
[8] = test system: MOLT-4
[9] = test system: NCI-H460
[10] = test system: OVCAR-4
[11] = test system: RPMI-8226
[12] = test system: SF-268
[13] = test system: SF-295
[14] = test system: SK-MEL-28
[15] = test system: SW-620
[16] = test system: UACC-62
[17] = test system: UO-31
[18] = test system: CCRF-CEM
[19] = test system: HOP-92
[20] = test system: K562

Compound | GI50 [1] | GI50 [2] | GI50 [3] | GI50 [4] | GI50 [5] | GI50 [6] | GI50 [7] | GI50 [8] | GI50 [9] | GI50 [10] | GI50 [11] | GI50 [12] | GI50 [13] | GI50 [14] | GI50 [15] | GI50 [16] | GI50 [17] | GI50 [18] | GI50 [19] | GI50 [20]
COC(=O)c1ccccc1/C=C1\Cc2cc3c(cc2C1=O)CCC3 | > 100 µM (inactive) | > 100 µM (inactive) | 45 µM (inactive) | > 100 µM (inactive) | > 100 µM (inactive) | 40.6 µM (inactive) | 3.78 µM (inactive) | > 100 µM (inactive) | > 100 µM (inactive) | > 100 µM (inactive) | > 100 µM (inactive) | 68.5 µM (inactive) | 43.5 µM (inactive) | > 100 µM (inactive) | > 100 µM (inactive) | 32.1 µM (inactive) | > 100 µM (inactive) | – | – | –
CSc1ncc2c(n1)sc1c(=O)n(-c3ccccc3)cnc12 | > 100 µM (inactive) | > 100 µM (inactive) | > 100 µM (inactive) | > 100 µM (inactive) | > 100 µM (inactive) | – | > 100 µM (inactive) | > 100 µM (inactive) | > 100 µM (inactive) | > 100 µM (inactive) | > 100 µM (inactive) | > 100 µM (inactive) | > 100 µM (inactive) | > 100 µM (inactive) | > 100 µM (inactive) | > 100 µM (inactive) | > 100 µM (inactive) | > 100 µM (inactive) | > 100 µM (inactive) | > 100 µM (inactive)
C=CC[C@@H](N)C(=O)N(C)[C@@H](C)[C@@H](O)c1ccccc1 | > 100 µM (inactive) | > 100 µM (inactive) | > 100 µM (inactive) | 82.8 µM (inactive) | > 100 µM (inactive) | – | > 100 µM (inactive) | > 100 µM (inactive) | > 100 µM (inactive) | > 100 µM (inactive) | – | > 100 µM (inactive) | > 100 µM (inactive) | > 100 µM (inactive) | > 100 µM (inactive) | > 100 µM (inactive) | > 100 µM (inactive) | > 100 µM (inactive) | 54.6 µM (inactive) | –
O=[N+]([O-])c1ccc(CSc2nn(Cc3ccc([N+](=O)[O-])cc3)cc3ncnc2-3)cc1 | 21 µM (inactive) | – | 37.1 µM (inactive) | 20.4 µM (inactive) | 33.9 µM (inactive) | 27.9 µM (inactive) | 33 µM (inactive) | 23.5 µM (inactive) | – | 52.5 µM (inactive) | 14.8 µM (inactive) | – | 45.3 µM (inactive) | 22.1 µM (inactive) | 21.7 µM (inactive) | 17.5 µM (inactive) | 12.1 µM (inactive) | > 10 µM (inactive) | 0.361 µM (active) | 31.8 µM (inactive)
Cn1c(C(C#N)c2nc(Cl)ncc2Br)nc2ccccc21 (centres undefined) | > 100 µM (inactive) | > 100 µM (inactive) | > 100 µM (inactive) | > 100 µM (inactive) | > 100 µM (inactive) | – | > 100 µM (inactive) | > 100 µM (inactive) | > 100 µM (inactive) | > 100 µM (inactive) | > 100 µM (inactive) | > 100 µM (inactive) | > 100 µM (inactive) | > 100 µM (inactive) | > 100 µM (inactive) | – | > 100 µM (inactive) | – | > 100 µM (inactive) | –
CC1(C)OC2OC(COC(=O)c3ccc(C#N)cc3)C3OC(C)(C)OC3C2O1 (centres undefined) | > 75 µM (inactive) | > 75 µM (inactive) | > 75 µM (inactive) | > 75 µM (inactive) | > 75 µM (inactive) | > 75 µM (inactive) | > 75 µM (inactive) | > 75 µM (inactive) | – | > 75 µM (inactive) | 57.8 µM (inactive) | > 75 µM (inactive) | > 75 µM (inactive) | > 75 µM (inactive) | > 75 µM (inactive) | > 75 µM (inactive) | 46.9 µM (inactive) | 50.7 µM (inactive) | – | > 75 µM (inactive)
COC(=O)N1N=C(c2ccccc2)C1c1ccccc1 (centres undefined) | 30.5 µM (inactive) | 49.2 µM (inactive) | 33.3 µM (inactive) | – | 26.2 µM (inactive) | 28.9 µM (inactive) | 31.1 µM (inactive) | 28.1 µM (inactive) | 30.8 µM (inactive) | 25.8 µM (inactive) | 26.7 µM (inactive) | 62.7 µM (inactive) | – | 39.7 µM (inactive) | 48.6 µM (inactive) | 22 µM (inactive) | 13.7 µM (inactive) | 31.9 µM (inactive) | – | 23.8 µM (inactive)
CC1(C)OC(=O)C(C)(C)C(=O)O1 | > 100 µM (inactive) | > 100 µM (inactive) | > 100 µM (inactive) | > 100 µM (inactive) | > 100 µM (inactive) | > 100 µM (inactive) | > 100 µM (inactive) | > 100 µM (inactive) | > 100 µM (inactive) | > 100 µM (inactive) | – | > 100 µM (inactive) | > 100 µM (inactive) | > 100 µM (inactive) | > 100 µM (inactive) | > 100 µM (inactive) | > 100 µM (inactive) | > 100 µM (inactive) | – | > 100 µM (inactive)
Cc1cccc(NC(=O)CCl)c1 | > 10 µM (inactive) | > 10 µM (inactive) | 6.95 µM (inactive) | > 10 µM (inactive) | 6.19 µM (inactive) | > 10 µM (inactive) | > 10 µM (inactive) | > 10 µM (inactive) | > 10 µM (inactive) | 3.29 µM (inactive) | > 10 µM (inactive) | 8.69 µM (inactive) | > 10 µM (inactive) | > 10 µM (inactive) | > 10 µM (inactive) | 5.64 µM (inactive) | – | 2.52 µM (inactive) | – | 6.11 µM (inactive)
Cc1cn(CC2(CO)CCC2)c(=O)[nH]c1=O | > 100 µM (inactive) | > 100 µM (inactive) | > 100 µM (inactive) | > 100 µM (inactive) | > 100 µM (inactive) | > 100 µM (inactive) | > 100 µM (inactive) | > 100 µM (inactive) | > 100 µM (inactive) | > 100 µM (inactive) | > 100 µM (inactive) | > 10 µM (inactive) | > 100 µM (inactive) | > 100 µM (inactive) | > 100 µM (inactive) | > 100 µM (inactive) | > 100 µM (inactive) | > 100 µM (inactive) | – | > 100 µM (inactive)
CC(=O)OCC(=O)[C@@]12OC(C)(C)O[C@@H]1C[C@H]1[C@@H]3CC=C4C[C@@H](O)CC[C@]4(C)[C@H]3CC[C@@]12C | 31.6 µM (inactive) | 49.2 µM (inactive) | 68.1 µM (inactive) | 50.5 µM (inactive) | > 100 µM (inactive) | > 100 µM (inactive) | > 100 µM (inactive) | > 100 µM (inactive) | – | > 100 µM (inactive) | 59.8 µM (inactive) | 31.6 µM (inactive) | 33.1 µM (inactive) | > 100 µM (inactive) | > 100 µM (inactive) | > 100 µM (inactive) | > 100 µM (inactive) | > 100 µM (inactive) | – | > 100 µM (inactive)
